Assay results published in patent US11154563B2, “Immunoproteasome inhibitors” (Principia Biopharma Inc., priority 2017, dated 2021).

Key:
[1] = target: immunoproteasome LMP7/B5i subunit (Homo sapiens, UniProt P20618+P28062); assay: Caliper-based proteasome enzymatic activity assay, LMP7; type: biochemical; conditions: human recombinant immunoproteasome 0.3 nM, FAM-peptide substrate 1 μM, 3 h at rt
Protocol: (§1) A Caliper-based proteasome assay (Caliper Life Sciences, Hopkinton, Mass.) was used to measure inhibition of the immunoproteasome LMP7/B5i subunit, the immunoproteasome LPM2/β1i subunit, and the constitutive proteasome β5c unit for a compound of Formula (I). For LMP7 and β5c, serial dilutions of test compounds were incubated with either human recombinant immunoprotcasome or constitutive proteasome (0.3 nM enzyme) and a carboxyfluorescein (FAM)-labeled peptide substrate FAM-TYETFKSIMKKSPF-NH2 (1 μM) at it for 3 h. The reaction was then terminated with a buffer containing the known proteasome inhibitor carfilzomib at a concentration of 5 uM. For LMP2, serial dilutions of test compounds were incubated with human recombinant immunoproteasome proteasome (0.3 nM enzyme) and a carboxyfluorescein (FAM)-labeled peptide substrate FAM-[…]-NH2 (1 μM) at rt for 2 h. The reaction was then terminated with a buffer containing the known proteasome inhibitor ixazomib at a concentration of 6.7 uM. The reaction buffer was 20 mM Hepes pH 7.4, 0.01% bovine serum albumin, 0.015% SDS, 0.5 mM EDTA, 1%0/DMSO. The peptide cleavage reaction product was quantified on a Caliper LabChip 3000. Percent inhibition was calculated for each compound dilution and the concentration that produced 50% inhibition was calculated. This value is presented as the IC50.

[2] = target: constitutive proteasome β5c unit (Homo sapiens, UniProt P20618+P28074); assay: Caliper-based proteasome enzymatic activity assay, β5c; type: biochemical; conditions: human recombinant constitutive proteasome 0.3 nM, FAM-peptide substrate 1 μM, 3 h at rt; read-out: β5c subunit IC50
Protocol: as §1

Row | IC50 [1] | IC50 [2] | Compound
1 | 4 nM | 854 nM | Cc1ccc(C[C@H](NC(=O)OC[C@H]2CCCCN2C(=O)C(C#N)=CC(C)(C)N2CCOCC2)B(O)O)cc1 [Example 45, ((R)-1-(((((R)-1-(2-cyano-4-methyl-4-morpholinopent-2-enoyl)piperidin-2-yl)methoxy)carbonyl)amino)-2-(p-tolyl)ethyl)boronic acid]
2 | 1.3 nM | 336 nM | C=CC(=O)N1C[C@@H]2C[C@@H]2[C@@H]1COC(=O)N[C@@H](Cc1coc2ccccc12)B(O)O [Example 52, ((R)-1-(((((1S,2R,5R)-3-acryloyl-3-azabicyclo[3.1.0]hexan-2-yl)methoxy)carbonyl)amino)-2-(benzofuran-3-yl)ethyl)boronic acid]
3 | 1.8 nM | 205 nM | CC(=O)N1CCN(C(C)(C)C=C(C#N)C(=O)N2CCC[C@@H]2COC(=O)N[C@@H](Cc2coc3ccccc23)B(O)O)CC1 [Example 53, ((R)-1-(((((R)-1-(4-(4-acetylpiperazin-1-yl)-2-cyano-4-methylpent-2-enoyl)pyrrolidin-2-yl)methoxy)carbonyl)amino)-2-(benzofuran-3-yl)ethyl)boronic acid]
4 | 111 nM | > 5000 nM | CC(C)(C=C(C#N)C(=O)N1CCCC[C@@H]1COC(=O)N[C@@H](Cc1ccccc1C#N)B(O)O)N1CCC(F)(F)C1 [Example 107, ((R)-1-(((((R)-1-(2-cyano-4-(3,3-difluoropyrrolidin-1-yl)-4-methylpent-2-enoyl)piperidin-2-yl)methoxy)carbonyl)amino)-2-(2-cyanophenyl)ethyl)boronic acid]
5 | 1.7 nM | 148 nM | CC(C)(C=C(C#N)C(=O)N1CC(F)(F)C[C@@H]1COC(=O)N[C@@H](Cc1coc2ccccc12)B(O)O)N1CCOCC1 [Example 56, ((R)-2-(benzofuran-3-yl)-1-(((((R)-1-(2-cyano-4-methyl-4-morpholinopent-2-enoyl)-4,4-difluoropyrrolidin-2-yl)methoxy)carbonyl)amino)ethyl)boronic acid]
6 | 6.5 nM | 1840 nM | COc1ccc(C[C@H](NC(=O)OC[C@H]2CCCCN2C(=O)C(C#N)=CC(C)(C)C)B(O)O)cc1 [Example 70, ((R)-1-(((((R)-1-(2-cyano-4,4-dimethylpent-2-enoyl)piperidin-2-yl)methoxy)carbonyl)amino)-2-(4-methoxyphenyl)ethyl)boronic acid]
7 | > 5000 nM | > 5000 nM | CC(C)(C=C(C#N)C(=O)N1CCCC[C@@H]1COC(=O)N[C@@H](Cc1ccc(F)cc1F)B(O)O)N1CCC(F)(F)C1 [Example 113, ((R)-1-(((((R)-1-(2-cyano-4-(3,3-difluoropyrrolidin-1-yl)-4-methylpent-2-enoyl)piperidin-2-yl)methoxy)carbonyl)amino)-2-(2,4-difluorophenyl)ethyl)boronic acid]
8 | 22 nM | > 5000 nM | CC(C)(C=C(C#N)C(=O)N1CCCC[C@@H]1COC(=O)N[C@@H](Cc1ccccc1C(F)(F)F)B(O)O)N1CCC(F)(F)C1 [Example 110, ((R)-1-(((((R)-1-(2-cyano-4-(3,3-difluoropyrrolidin-1-yl)-4-methylpent-2-enoyl)piperidin-2-yl)methoxy)carbonyl)amino)-2-(2-(trifluoromethyl)phenyl)ethyl)boronic acid]
9 | 13 nM | > 5000 nM | COc1cccc(C[C@H](NC(=O)OC[C@H]2CCCCN2C(=O)C(C#N)=CC(C)(C)C)B(O)O)c1 [Example 77, ((R)-1-(((((R)-1-(2-cyano-4,4-dimethylpent-2-enoyl)piperidin-2-yl)methoxy)carbonyl)amino)-2-(3-methoxyphenyl)ethyl)boronic acid]
10 | 37 nM | 3390 nM | C=CC(=O)N1C[C@@H]2C[C@@H]2[C@@H]1COC(=O)N[C@@H](Cc1ccc(C)cc1)B(O)O [Example 95, ((R)-1-(((((1S,2R,5R)-3-acryloyl-3-azabicyclo[3.1.0]hexan-2-yl)methoxy)carbonyl)amino)-2-(p-tolyl)ethyl)boronic acid]
11 | 2.9 nM | 445 nM | Cc1ccc(C[C@H](NC(=O)OC[C@H]2CCCCCN2C(=O)C(C#N)=CC(C)(C)N2CCC(F)(F)C2)B(O)O)cc1 [Example 84, ((R)-1-(((((R)-1-(2-cyano-4-(3,3-difluoropyrrolidin-1-yl)-4-methylpent-2-enoyl)azepan-2-yl)methoxy)carbonyl)amino)-2-(p-tolyl)ethyl)boronic acid]
12 | 5 nM | 3970 nM | CN(CC(F)(F)F)C(C)(C)C=C(C#N)C(=O)N1CCCC[C@@H]1COC(=O)N[C@@H](Cc1ccccc1)B(O)O [Example 97, ((R)-1-(((((R)-1-(2-cyano-4-methyl-4-(methyl(2,2,2-trifluoroethyl)amino)pent-2-enoyl)piperidin-2-yl)methoxy)carbonyl)amino)-2-phenylethyl)boronic acid]
13 | 2 nM | 1510 nM | CN(CC(F)F)C(C)(C)C=C(C#N)C(=O)N1CCCC[C@@H]1COC(=O)N[C@@H](Cc1ccccc1)B(O)O [Example 80, ((R)-1-(((((R)-1-(2-cyano-4-((2,2-difluoroethyl)(methyl)amino)-4-methylpent-2-enoyl)piperidin-2-yl)methoxy)carbonyl)amino)-2-phenylethyl)boronic acid]
14 | 1.4 nM | 176 nM | C[C@H]1CC[C@H](COC(=O)N[C@@H](Cc2coc3ccccc23)B(O)O)N1C(=O)C(C#N)=CC(C)(C)N1CCOCC1 [Example 57, ((R)-2-(benzofuran-3-yl)-1-(((((2R,5S)-1-(2-cyano-4-methyl-4-morpholinopent-2-enoyl)-5-methylpyrrolidin-2-yl)methoxy)carbonyl)amino)ethyl)boronic acid]
15 | 13 nM | 1010 nM | CN(C)C/C=C/C(=O)N1C[C@@H]2C[C@@H]2[C@@H]1COC(=O)N[C@@H](Cc1coc2ccccc12)B(O)O [Example 87, ((R)-2-(benzofuran-3-yl)-1-(((((1S,2R,5R)-3-((E)-4-(dimethylamino)but-2-enoyl)-3-azabicyclo[3.1.0]hexan-2-yl)methoxy)carbonyl)amino)ethyl)boronic acid]
16 | 4.5 nM | 1660 nM | CC(C)(C=C(C#N)C(=O)N1CCC[C@]1(C)COC(=O)N[C@@H](Cc1coc2ccccc12)B(O)O)N1CCOCC1 [Example 71, ((R)-2-(benzofuran-3-1)-1-(((((R)-1-(2-cyano-4-methyl-4-morpholinopent-2-enoyl)-2-methylpyrrolidin-2-yl)methoxy)carbonyl)amino)ethyl)boronic acid]
17 | 4.4 nM | 3840 nM | Cc1ccc(C[C@H](NC(=O)OC[C@@H]2CCCCCN2C(=O)C(C#N)=CC(C)(C)N2CCC(F)(F)C2)B(O)O)cc1 [Example 81, ((R)-1-(((((S)-1-(2-cyano-4-(3,3-difluoropyrrolidin-1-yl)-4-methylpent-2-enoyl)azepan-2-yl)methoxy)carbonyl)amino)-2-(p-tolyl)ethyl)boronic acid]
18 | 2 nM | 578 nM | CC(C)(C=C(C#N)C(=O)N1CCCC[C@@H]1COC(=O)N[C@@H](Cc1ccc(Cl)cc1)B(O)O)N1CCC(F)(F)C1 [Example 79, ((R)-2-(4-chlorophenyl)-1-(((((R)-1-(2-cyano-4-(3,3-difluoropyrrolidin-1-yl)-4-methylpent-2-enoyl)piperidin-2-yl)methoxy)carbonyl)amino)ethyl)boronic acid]
19 | 2.7 nM | 288 nM | Cc1ccc(C[C@H](NC(=O)OC[C@H]2COCCN2C(=O)C(C#N)=CC(C)(C)C)B(O)O)cc1 [Example 73, ((R)-1-(((((R)-4-(2-cyano-4,4-dimethylpent-2-enoyl)morpholin-3-yl)methoxy)carbonyl)amino)-2-(p-tolyl)ethyl)boronic acid]
20 | 2.5 nM | 320 nM | C=CC(=O)N1CC(F)(F)C[C@@H]1COC(=O)N[C@@H](Cc1coc2ccccc12)B(O)O [Example 91, ((R)-1-(((((R)-1-acryloyl-4,4-difluoropyrrolidin-2-yl)methoxy)carbonyl)amino)-2-(benzofuran-3-yl)ethyl)boronic acid]
21 | 62 nM | > 5000 nM | Cc1ccc(C[C@H](NC(=O)OC[C@H]2[C@H]3C[C@H]3CN2C(=O)C(C#N)=CC(C)(C)N2CCC(F)(F)C2)B(O)O)cc1 [Example 116, ((R)-1-(((((1S,2R,5R)-3-(2-cyano-4-(3,3-difluoropyrrolidin-1-yl)-4-methylpent-2-enoyl)-3-azabicyclo[3.1.0]hexan-2-yl)methoxy)carbonyl)amino)-2-(p-tolyl)ethyl)boronic acid]
22 | 3.2 nM | 670 nM | CC(C)(C)C=C(C#N)C(=O)N1CCOC[C@@H]1COC(=O)N[C@@H](Cc1ccccc1)B(O)O [Example 69, ((R)-1-(((((R)-4-(2-cyano-4,4-dimethylpent-2-enoyl)morpholin-3-yl)methoxy)carbonyl)amino)-2-phenylethyl)boronic acid]
23 | 2 nM | 34 nM | CC(C)(C)C=C(C#N)C(=O)N1CCOC[C@@H]1COC(=O)N[C@@H](Cc1coc2ccccc12)B(O)O [Example 43, ((R)-2-(benzofuran-3-yl)-1-(((((R)-4-(2-cyano-4,4-dimethylpent-2-enoyl)morpholin-3-yl)methoxy)carbonyl)amino)ethyl)boronic acid]
